Laboratory results: patent US4511568A, “CNS-Depressant pyrazolopyridines” (ICI Americas Inc., priority 1982, dated 1985)

Assays:
monkeys = test: oral administration to monkeys, deaths; assay type: in vivo, monkey; conditions: 100 mg/kg
[1] = system: [^3 H]flunitrazepam binding, lysed mitochondrial-synaptosomal (P2) fraction from the cerebral cortex; test: [^3 H]flunitrazepam binding test; conditions: 0.2 nM [^3 H]flunitrazepam, rat cerebral cortex membranes, 90 min at 0° C.
rats = test: Shock-Induced Suppression of Drinking (Rats) (SSD) Test; assay type: in vivo, rat; conditions: significant, P less than 0.05, Students' t-test, vs control
Method: Male rats in the weight range of 200 to 220 grams are deprived of water for 48 hours and deprived of food for 24 hours before testing. Normally, the rats are orally intubated (5 ml/kg) with the test compound (based on mg/kg body weight). The vehicle control group of rats is also intubated by mouth. A positive control group of rats is also orally administered a control dose of 18 mg/kg of chlordiazepoxide. Random selection of the rats is utilized in dosing. The rats are returned to the cage for one hour. Sixty minutes after drug administration, the rat is quietly removed from its cage and the hind feet wiped with Signa electrode gel made by Parker Laboratories or Orange, N.J. When intraperitoneal (i.p.) administration was used, the protocol was identical except that the drugs were administered (5 ml/kg) 30 minutes prior to testing. The rat is placed on the floor in the chamber facing the licking tube. The animal is allowed 5 minutes to make 20 licking responses and receive the first shock (0.5 mA). […] This period is automatically started, counted and terminated. The number of licks and shocks are recorded. The activity of the compound tested is evaluated by comparing the mean shocks of the group dosed with the test compound to both the mean shocks of the vehicle and positive control groups via a Students' t-test. […]

[2] = approximate oral LD50 in the rat; conditions: in vivo
[3] = system: [^3 H]flunitrazepam binding, lysed mitochondrial-synaptosomal (P2) fraction from the cerebral cortex; conditions: general statement on reference compounds; cited from earlier work

SMILES	deaths (monkeys)	effect on flunitrazepam binding [1]	increase in the number of shocks taken (anti-conflict / anti-anxiety activity) (rats)	LD50 [2]	effect on flunitrazepam binding (known compounds) [3]
CCCCCn1ncc2c(N)c3c(nc21)CN(CCC)C3=O [Example 5, 4-Amino-6,7-dihydro-1-n-pentyl-6-n-propylpyrazolo[3,4-b]pyrrolo[3,4-e]pyridin-5(1H)-one]	no deaths	activity as displacers of flunitrazepam binding	showed activity	> 800 mg/kg	
C=CCN1Cc2nc3c(cnn3CCCCC)c(N)c2C1=O [Example 4, 6-Allyl-4-amino-6,7-dihydro-1-n-pentylpyrazolo[3,4-b]pyrrolo[3,4-e]pyridin-5(1H)-one]		activity as displacers of flunitrazepam binding	showed activity		
CCCCNc1c(C(=O)OCC)cnc2c1cnn2CC [cartazolate]					enchancement of the binding
CCCCNc1c(C(=O)OCC)c(C)nc2c1cnn2CC [tracazolate]					enchancement of the binding
